{"source": "patent EP0396201A1", "about": "(priority 1989, dated 1990)", "origin": "cited, not measured here", "test_system": "carbonic anhydrase", "details": "carbonic anhydrase inhibitor, relative activity", "data": [{"compound": "CC(=O)Nc1nnc(S(N)(=O)=O)s1", "note": "[Acetazolamide]", "values": [{"measurement": "times as active as p-aminobenzenesulfonamide", "result": "~330"}]}]}
